Measurements as given in patent US10844080B2, “Compositions and methods for inhibiting arginase activity” (CALITHERA BIOSCIENCES, INC., priority 2015, dated 2020).

Tested on: Lewis Lung Carcinoma cells
Assay: Lewis Lung Carcinoma efficacy study
Assay type: in vivo
Details: single agent, dosed orally twice daily at 50, 100 or 200 mg/kg; female C57.Bl/6 mice implanted subcutaneously with Lewis Lung Carcinoma cells; relative to control
Method: Female C57.Bl/6 mice (n=40) were implanted subcutaneously with 1×10^6 Lewis Lung Carcinoma cells suspended in PBS. The day following implantation, mice were randomized into 4 groups of n=10 mice to receive the following treatments dosed orally twice daily until study end: 1) Vehicle (water); 2) Compound 10 at 50 mg/kg formulated in water; 3) Compound 10 at 100 mg/kg formulated in water; or 4) Compound 10 at 200 mg/kg formulated in water. Tumors were measured three times per week with digital calipers and tumor volumes calculated with the following formula: tumor volume (mm^3)=(a×b^2/2) where ‘b’ is the smallest diameter and ‘a’ is the largest perpendicular diameter. ***P-value<0.001, ****P-value<0.0001 (Two-sided T-test).

C[C@H](N)C(=O)N1C[C@H](CCCB(O)O)[C@](N)(C(=O)O)C1 [Compound 10, (3R,4S)-3-amino-1-((S)-2-aminopropanoyl)-4-(3-boronopropyl)pyrrolidine-3-carboxylic acid]
tumor volume over time (tumor growth): slows tumor growth relative to control
